# Entries after “also recorded” stand apart in the source; their conditions may differ.
# How the values were obtained:
# human CB2 receptor = human CB2 receptor (Homo sapiens, UniProt P34972); assay: [35S]GTPγS binding assay, CB2 receptor agonistic activity; format: biochemical; conditions: for Selective index (CB1/CB2): EC50 ratio of the CB1 to CB2; for Human CB2 receptor S/R ratio: EC50 value ratio of an (S)-enantiomer to the corresponding (R)-enantiomer; for EC50: Human CB2 receptor EC50, [35S]GTPγS binding, tested 1 × 10^−11 to 1 × 10^−4 M; for CB2 receptor agonist activity (in words): [35S]GTPγS binding
# human CB2 receptor, sequence (P34972 whole entry): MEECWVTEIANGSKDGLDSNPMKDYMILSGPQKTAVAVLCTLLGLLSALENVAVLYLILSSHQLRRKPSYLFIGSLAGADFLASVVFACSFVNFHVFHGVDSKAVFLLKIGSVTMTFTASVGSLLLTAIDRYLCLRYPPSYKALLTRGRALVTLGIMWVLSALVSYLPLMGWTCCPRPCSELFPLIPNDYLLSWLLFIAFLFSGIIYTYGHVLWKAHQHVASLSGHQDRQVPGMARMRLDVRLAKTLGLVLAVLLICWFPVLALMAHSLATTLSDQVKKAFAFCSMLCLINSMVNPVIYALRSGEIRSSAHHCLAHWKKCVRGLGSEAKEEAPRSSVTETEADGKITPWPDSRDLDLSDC
# Protocol: (§1) For the evaluation of CB1/CB2 cannabinoid receptor activity, [^35S]GTPγS binding assays were performed. These assays were performed at ADME and Tox. Research Institute, Sekisui Medical Co., Ltd. (Tokai-mura, Ibaraki, Japan).
# human CB1 receptor = human CB1 receptor (Homo sapiens, UniProt P21554); assay: [35S]GTPγS binding assay, CB1 receptor agonistic activity; format: biochemical; conditions: for Human CB1 receptor S/R ratio: EC50 value ratio of an (S)-enantiomer to the corresponding (R)-enantiomer; for CB1 receptor agonist activity (in words): [35S]GTPγS binding, maximum tested concentration 1.0 × 10^−4 M; for difference in the EC50 levels between the enantiomers to activate the CB1 receptor: (S)-enantiomer lower than (R)-enantiomer
# human CB1 receptor, sequence (P21554 whole entry): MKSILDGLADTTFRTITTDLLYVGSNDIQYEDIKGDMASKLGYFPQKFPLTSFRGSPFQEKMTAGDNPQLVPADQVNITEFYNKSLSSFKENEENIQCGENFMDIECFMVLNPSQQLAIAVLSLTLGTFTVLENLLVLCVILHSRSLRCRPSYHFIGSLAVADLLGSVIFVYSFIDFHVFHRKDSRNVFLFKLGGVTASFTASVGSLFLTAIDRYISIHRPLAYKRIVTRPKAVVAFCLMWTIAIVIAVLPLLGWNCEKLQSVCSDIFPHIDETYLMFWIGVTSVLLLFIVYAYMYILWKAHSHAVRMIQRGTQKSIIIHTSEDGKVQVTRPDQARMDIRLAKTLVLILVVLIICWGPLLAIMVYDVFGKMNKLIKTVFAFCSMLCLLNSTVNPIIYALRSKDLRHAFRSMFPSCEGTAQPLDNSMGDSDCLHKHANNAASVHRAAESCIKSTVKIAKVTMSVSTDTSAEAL
# Protocol: as §1
Compound,Selective index (CB1/CB2) (human CB2 receptor),Human CB2 receptor S/R ratio (human CB2 receptor),EC50 (human CB2 receptor),EC50 (human CB1 receptor),Human CB1 receptor S/R ratio (human CB1 receptor),"selective index of CB1/CB2 (human CB2 receptor; CB2 over CB1, from EC50 values)",CB2 receptor agonist activity (in words) (human CB2 receptor),CB1 receptor agonist activity (in words) (human CB1 receptor),difference in the EC50 levels between the enantiomers to activate the CB1 receptor (human CB1 receptor)
"CCOC(=O)[C@H](NC(=O)c1nn(CCCCCF)c2ccccc12)C(C)C [(R)5F-EMB-PINACA, Ethyl [1-(5-fluoropentyl)-1H-indazole-3-carbonyl]-D-valinate]",21.4,4.1,1.68 nM,35.9 nM,0.14,–,–,–,–
NC(=O)[C@@H](Cc1ccccc1)NC(=O)c1nn(CC2CCCCC2)c2ccccc12 [(R)-N-(1-Amino-1-oxo-3-phenylpropan-2-yl)-1-(cyclohexylmethyl)-1H-indazole-3-carboxamide],68.8,0.017,490 nM,33700 nM,0.0074,–,–,–,–
"CC(C)[C@@H](NC(=O)c1nn(Cc2ccccc2F)c2ccccc12)C(N)=O [(R)AB-FUBINACA 2-fluorobenzyl isomer, (R)-N-(1-Amino-3-methyl-1-oxobutan-2-yl)-1-(2-fluorobenzyl)-1H-indazole-3-carboxamide]",22.5,3.9,0.627 nM,14.1 nM,0.21,–,–,–,–
"CCOC(=O)[C@H](NC(=O)c1nn(Cc2ccc(F)cc2)c2ccccc12)C(C)C [(R)EMB-FUBINACA, Ethyl [1-(4-fluorobenzyl)-1H-indazole-3-carbonyl]-D-valinate]",35.6,2.5,0.863 nM,30.7 nM,0.015,–,–,–,–
"COC(=O)[C@H](NC(=O)c1cn(Cc2ccc(F)cc2)c2ccccc12)C(C)(C)C [(R)MDMB-FUBICA, Methyl (R)-2-[1-(4-fluorobenzyl)-1H-indole-3-carboxamido]-3,3-dimethylbutanoate]",">30,000",0.35,3.1 nM,> 100000 nM,<0.0001,more than 3.2 × 10^4 fold,function as an agonist of the CB2 receptor; also recorded: functioned only on the CB2 receptor as an agonist,lacks CB1 receptor activity; also recorded: not confirmed; also recorded: no [^35S]GTPγS binding activity,–
"CCOC(=O)[C@@H](NC(=O)c1nn(CCCCCF)c2ccccc12)C(C)C [(S)5F-EMB-PINACA, Ethyl [1-(5-fluoropentyl)-1H-indazole-3-carbonyl]-L-valinate]",0.718,4.1,6.91 nM,4.96 nM,0.14,–,–,–,–
NC(=O)[C@H](Cc1ccccc1)NC(=O)c1nn(CC2CCCCC2)c2ccccc12 [(S)-N-(1-Amino-1-oxo-3-phenylpropan-2-yl)-1-(cyclohexylmethyl)-1H-indazole-3-carboxamide],31.0,0.017,8.09 nM,251 nM,0.0074,–,–,–,134 fold
"CC(C)[C@H](NC(=O)c1nn(Cc2ccccc2F)c2ccccc12)C(N)=O [(S)AB-FUBINACA 2-fluorobenzyl isomer, (S)-N-(1-Amino-3-methyl-1-oxobutan-2-yl)-1-(2-fluorobenzyl)-1H-indazole-3-carboxamide]",1.20,3.9,2.44 nM,2.92 nM,0.21,–,–,–,–
"CCOC(=O)[C@@H](NC(=O)c1nn(Cc2ccc(F)cc2)c2ccccc12)C(C)C [(S)EMB-FUBINACA, Ethyl [1-(4-fluorobenzyl)-1H-indazole-3-carbonyl]-L-valinate]",0.214,2.5,2.14 nM,0.458 nM,0.015,–,–,–,–
"COC(=O)[C@@H](NC(=O)c1cn(Cc2ccc(F)cc2)c2ccccc12)C(C)(C)C [(S)MDMB-FUBICA, Methyl (S)-2-[1-(4-fluorobenzyl)-1H-indole-3-carboxamido]-3,3-dimethylbutanoate]",9.08,0.35,1.07 nM,9.72 nM,<0.0001,–,could activate both of these receptors at nanomolar levels,could activate both of these receptors at nanomolar levels,–
"COC(=O)C(NC(=O)c1cn(Cc2ccc(F)cc2)c2ccccc12)C(C)(C)C (stereo not drawn) [MDMB-FUBICA, methyl 2-[1-(4-fluorobenzyl)-1H-indole-3-carboxamido]-3,3-dimethylbutanoate]",–,–,–,–,–,–,–,–,"more than 10,000 fold"
